Assay results as given in ChEMBL document CHEMBL4311976, “Design, synthesis and biological evaluation of novel 7H-pyrrolo[2,3-d]pyrimidine derivatives as potential FAK inhibitors and anticancer agents” (Eur J Med Chem, 2019).

Columns and labels:
[1] = Intrinsic clearance in human liver at 1 uM measured up to 1 hr in presence of NADPH by LC-MS/MS analysis; assay type: ADME, tissue-based
[2] = Intrinsic clearance in rat liver microsomes at 1 uM measured up to 1 hr in presence of NADPH by LC-MS/MS analysis; assay type: ADME, Microsome; conditions: read-out: CLH
A549 [3] = assay: Antimetastatic activity against human A549 cells assessed as reduction in number of cell migration after 72 hrs by crystal violet staining based transwell assay; assay type: functional
MDA-MB-231 = assay: cells; conditions: Homo sapiens, MDA-MB-231, 72 h
Description: Antiproliferative activity against human MDA-MB-231 cells assessed as reduction in cell viability after 72 hrs by MTT assay

A549 [4] = assay: cells; conditions: Homo sapiens, A549, 72 h
Description: Antiproliferative activity against human A549 cells assessed as reduction in cell viability after 72 hrs by MTT assay

A549 [5] = assay: Induction of apoptosis in human A549 cells assessed as late apoptotic cells at 9 uM after 72 hrs by Annexin V-FITC/propidium iodide staining-based flow cytometric analysis (reference value: 1.24%); assay type: functional
A549 [6] = assay: Induction of apoptosis in human A549 cells assessed as late apoptotic cells at 3 uM after 72 hrs by Annexin V-FITC/propidium iodide staining-based flow cytometric analysis (reference value: 1.24%); assay type: functional
CYP2D6 = CYP2D6 (Homo sapiens, UniProt P10635); assay: Inhibition of CYP2D6 in human pooled liver microsomes at 10 uM using dextromethorphan as substrate preincubated for 10 mins followed by NADPH addition and measured after 15 mins by LC/MS/MS analysis relative to control; assay type: ADME; conditions: probe dextromethorphan
Sequence of CYP2D6 (P10635 whole entry): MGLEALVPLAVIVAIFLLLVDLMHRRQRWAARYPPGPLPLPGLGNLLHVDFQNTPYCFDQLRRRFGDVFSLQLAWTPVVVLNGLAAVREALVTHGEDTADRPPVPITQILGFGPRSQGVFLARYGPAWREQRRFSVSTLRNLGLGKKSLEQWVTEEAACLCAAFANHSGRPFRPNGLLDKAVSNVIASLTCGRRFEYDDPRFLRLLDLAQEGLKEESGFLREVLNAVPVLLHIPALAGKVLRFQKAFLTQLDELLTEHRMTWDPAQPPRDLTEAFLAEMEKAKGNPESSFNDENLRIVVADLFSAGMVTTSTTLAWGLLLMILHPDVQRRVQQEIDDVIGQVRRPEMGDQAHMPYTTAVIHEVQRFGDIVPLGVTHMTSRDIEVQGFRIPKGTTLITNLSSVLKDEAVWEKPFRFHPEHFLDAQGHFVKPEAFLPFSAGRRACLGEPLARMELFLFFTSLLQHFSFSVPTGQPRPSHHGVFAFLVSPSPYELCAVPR

[7] = target: Mitogen-activated protein kinase 1 (Homo sapiens) (UniProt P28482); assay: Inhibition of recombinant full length GST-tagged human ERK2 expressed in Escherichia coli at 0.5 uM using Ser/Thr 03 as substrate in presence of ATP at Km concentration after 1 hr by Z'-LYTE assay relative to control
Sequence of Mitogen-activated protein kinase 1 (Homo sapiens) (P28482 whole entry, the tested form may be a part): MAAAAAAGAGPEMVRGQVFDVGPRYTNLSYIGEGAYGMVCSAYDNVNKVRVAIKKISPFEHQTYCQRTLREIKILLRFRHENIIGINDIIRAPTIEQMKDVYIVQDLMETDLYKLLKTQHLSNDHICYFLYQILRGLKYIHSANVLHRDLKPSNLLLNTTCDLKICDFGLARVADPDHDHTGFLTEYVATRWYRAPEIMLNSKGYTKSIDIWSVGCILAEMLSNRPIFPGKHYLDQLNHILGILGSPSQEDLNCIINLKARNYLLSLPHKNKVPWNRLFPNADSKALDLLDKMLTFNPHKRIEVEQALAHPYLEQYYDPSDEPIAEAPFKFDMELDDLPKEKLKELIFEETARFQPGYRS

[8] = target: Receptor-type tyrosine-protein kinase FLT3 (Homo sapiens) (UniProt P36888); assay: Inhibition of recombinant His-tagged human FLT3 (564 to 958 residues) expressed in baculovirus expression system at 0.5 uM using tyr 02 as substrate in presence of ATP at Km concentration after 1 hr by Z'-LYTE assay relative to control
Sequence of Receptor-type tyrosine-protein kinase FLT3 (Homo sapiens) (P36888 whole entry, the tested form may be a part): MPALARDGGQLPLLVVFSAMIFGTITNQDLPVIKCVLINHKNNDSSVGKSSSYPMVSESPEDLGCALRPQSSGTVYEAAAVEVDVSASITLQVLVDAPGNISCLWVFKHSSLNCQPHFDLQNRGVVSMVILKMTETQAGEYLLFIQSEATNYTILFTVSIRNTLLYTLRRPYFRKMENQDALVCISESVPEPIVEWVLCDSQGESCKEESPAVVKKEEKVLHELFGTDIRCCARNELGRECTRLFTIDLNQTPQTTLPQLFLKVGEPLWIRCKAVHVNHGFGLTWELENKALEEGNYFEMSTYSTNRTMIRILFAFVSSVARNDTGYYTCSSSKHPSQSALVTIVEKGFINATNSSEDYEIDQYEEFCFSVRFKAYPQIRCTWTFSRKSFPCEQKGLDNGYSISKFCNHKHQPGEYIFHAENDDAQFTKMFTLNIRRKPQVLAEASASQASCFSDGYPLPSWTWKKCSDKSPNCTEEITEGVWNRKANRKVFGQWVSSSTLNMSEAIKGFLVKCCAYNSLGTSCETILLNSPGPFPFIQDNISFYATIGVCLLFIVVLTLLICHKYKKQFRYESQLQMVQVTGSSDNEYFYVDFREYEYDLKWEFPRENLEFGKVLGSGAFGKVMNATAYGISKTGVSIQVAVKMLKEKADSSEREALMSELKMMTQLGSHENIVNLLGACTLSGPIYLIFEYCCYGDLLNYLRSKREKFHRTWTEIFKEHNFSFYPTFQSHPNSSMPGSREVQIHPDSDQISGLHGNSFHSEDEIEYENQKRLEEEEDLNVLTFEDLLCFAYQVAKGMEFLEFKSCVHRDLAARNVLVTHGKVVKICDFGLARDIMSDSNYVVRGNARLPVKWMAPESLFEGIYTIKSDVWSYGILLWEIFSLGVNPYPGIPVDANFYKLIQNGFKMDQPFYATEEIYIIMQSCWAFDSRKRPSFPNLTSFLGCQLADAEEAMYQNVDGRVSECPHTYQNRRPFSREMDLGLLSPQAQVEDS

[9] = Half life in mouse liver microsomes at 1 uM measured up to 1 hr by LC-MS/MS analysis; assay type: ADME, Microsome
[10] = Half life in human liver microsomes at 1 uM measured up to 1 hr by LC-MS/MS analysis; assay type: ADME, Microsome

In the case of `COc1cc(C(=O)NC2CCNCC2)ccc1Nc1nc(Nc2ccccc2P(C)(C)=O)c2cc[nH]c2n1`, the CLH [1] is reported as 11.6 mL/min/kg, the microsomal CLint at 1 µM [2] is reported as < 9.6 µL/min/mg and the Activity (A549 [3]) is reported as “Dose-dependent effect”. It also gave an IC50 (MDA-MB-231) of 17.4 µM, an IC50 (A549 [4]) of 3.2 µM and an Activity (A549 [5]) of 36.59%. For the same compound, the Activity (A549 [6]) was 25.09%, the inhibition at 0.25 h, 10 µM (CYP2D6) was 10.7% and the inhibition [7] was 9%. It also gave an inhibition [8] of 13%, a half-life at 1 µM [9] of 2.29 h and a half-life at 1 µM [10] of 1.79 h.
